The supplement of paper PMC10307832

How the values were obtained:
Test in all cases: relative viability (nuclei count vs DMSO), 5 days (fraction); higher = more cells survive
[1] = compound: C1CNCCC1C2=CC(=NN2)C3=CC=NC=C3 + Nc1ncn([C@H]2C[C@H](O)[C@@H](CO)O2)c(=O)n1 [Decitabine] (partner 2 µM)
How it was run: (§1)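 The day after seeding in 1536-well plates, lung cancer cell lines were treated by pin tool with a single drug, or with a fixed anchor-drug dose together with five library-drug doses (not always all listed) in √10 steps. After 5 days, a combined fix-and-stain solution (final 0.05% Triton X-100, 1% formaldehyde, 1 ug/ml Hoechst) was added. Nuclei counted on 4× images gave relative viability as treated counts over vehicle counts, reported as the median of duplicate plates.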

[2] = compound: C[C@@H](N)c1ccc(C(=O)Nc2ccnc3[nH]ccc23)cc1 + Cc1nc(Nc2ncc(C(=O)Nc3c(C)cccc3Cl)s2)cc(N2CCN(CCO)CC2)n1 [Dasatinib] (partner 0.075 µM)
How it was run: as §1

Tanzisertib + Trametinib = compound: O[C@H]1CC[C@H](Nc2ncc3nc(Nc4c(F)cc(F)cc4F)n([C@H]4CCOC4)c3n2)CC1 [Tanzisertib] + CC(=O)Nc1cccc(-n2c(=O)n(C3CC3)c(=O)c3c(Nc4ccc(I)cc4F)n(C)c(=O)c(C)c32)c1 [Trametinib] (partner 0.02 µM)
How it was run: as §1

Tanzisertib + Bortezomib = compound: O[C@H]1CC[C@H](Nc2ncc3nc(Nc4c(F)cc(F)cc4F)n([C@H]4CCOC4)c3n2)CC1 [Tanzisertib] + CC(C)C[C@H](NC(=O)[C@H](Cc1ccccc1)NC(=O)c1cnccn1)B(O)O [Bortezomib] (partner 0.002 µM)
How it was run: as §1

Row | Cell Line | relative viability ([1]; first compound 0.08 µM) | relative viability ([1]; first compound 0.8 µM) | relative viability ([1]; first compound 2.53 µM) | relative viability ([1]; first compound 8 µM) | relative viability ([2]; first compound 0.04 µM) | relative viability ([2]; first compound 0.1265 µM) | relative viability ([2]; first compound 0.4 µM) | relative viability ([2]; first compound 1.265 µM) | relative viability ([2]; first compound 4 µM) | relative viability (Tanzisertib + Trametinib; first compound 0.08 µM) | relative viability (Tanzisertib + Trametinib; first compound 0.253 µM) | relative viability (Tanzisertib + Trametinib; first compound 0.8 µM) | relative viability (Tanzisertib + Trametinib; first compound 2.53 µM) | relative viability (Tanzisertib + Trametinib; first compound 8 µM) | relative viability (Tanzisertib + Bortezomib; first compound 0.08 µM) | relative viability (Tanzisertib + Bortezomib; first compound 0.253 µM) | relative viability (Tanzisertib + Bortezomib; first compound 0.8 µM) | relative viability (Tanzisertib + Bortezomib; first compound 2.53 µM) | relative viability (Tanzisertib + Bortezomib; first compound 8 µM)
1 | LCLC-103H | 0.767 | 0.735 | 0.755 | 0.642 | 0.363 | 0.506 | 0.474 | 0.285 | 0.279 | 0.661 | 0.744 | 0.703 | 0.691 | 0.71 | 1.15 | 1.06 | 1.04 | 1.18 | 1.16
2 | NCI-H23 | 0.306 |  | 0.301 | 0.377 | 0.77 | 0.736 | 0.862 |  | 0.76 | 0.389 | 0.357 | 0.418 | 0.367 | 0.419 | 1.18 | 0.979 | 0.875 | 1.11 | 1.17
3 | NCI-H1792 | 0.553 | 0.398 | 0.551 | 0.514 | 0.831 | 0.875 | 0.826 | 0.672 | 0.534 | 0.501 | 0.455 | 0.35 | 0.413 | 0.244 | 0.98 | 1.08 | 0.937 | 0.882 | 0.982
4 | NCI-H596 | 1.03 | 1.25 | 0.922 | 1.21 | 0.671 | 0.537 | 0.493 |  | 0.557 | 0.789 | 0.796 | 0.89 | 0.73 | 0.776 | 1.1 | 0.99 | 1.2 | 0.907 | 1.1
5 | NCI-H460 | 0.379 | 0.608 | 0.554 | 0.474 | 0.463 | 0.525 | 0.451 | 0.27 | 0.337 | 0.177 | 0.11 | 0.2 | 0.139 | 0.0888 | 1.21 | 1.2 | 1.12 | 1.07 | 0.965
6 | HCC-366 | 0.266 | 0.353 | 0.373 | 0.366 | 0.544 | 0.621 | 0.483 |  | 0.508 |  | 0.39 | 0.376 | 0.292 | 0.258 | 1.08 | 1.03 | 1.1 | 0.995 | 1.01
7 | NCI-H2085 | 0.526 |  | 0.578 | 0.531 | 0.294 | 0.322 | 0.421 | 0.33 | 0.391 |  | 0.604 | 0.436 | 0.556 | 0.491 | 1.11 | 1.08 | 0.992 | 1.07 | 1.09
8 | PC-14 | 0.22 | 0.19 | 0.268 | 0.265 | 0.216 | 0.29 | 0.246 | 0.206 | 0.131 | 0.886 | 0.673 | 0.805 | 0.666 | 0.295 | 1.05 | 0.878 | 0.879 | 1.01 | 0.585
9 | HOP-62 | 0.226 | 0.234 | 0.205 | 0.201 | 0.435 | 0.632 | 0.617 | 0.515 | 0.303 | 0.389 | 0.341 | 0.435 | 0.412 | 0.346 | 0.803 | 0.974 | 1.01 | 0.726 | 0.704
10 | NCI-H2087 | 0.339 | 0.279 | 0.267 | 0.292 | 0.956 | 0.912 | 0.869 |  | 0.65 | 0.256 | 0.171 | 0.21 | 0.181 | 0.182 | 0.985 | 0.931 | 0.835 | 0.9 | 0.857
11 | PC-3 [JPC-3] | 0.881 | 0.77 | 0.963 | 0.895 | 0.951 | 1 | 1.02 | 0.901 | 0.82 | 0.715 | 0.759 | 0.763 | 0.774 | 0.612 | 0.875 | 0.931 | 0.847 | 0.739 | 0.716
12 | H3255 | 0.532 |  | 0.674 | 0.587 | 0.344 | 0.432 | 0.519 | 0.331 | 0.4 | 0.696 | 0.646 | 0.766 | 0.726 | 0.523 | 0.829 | 0.796 | 0.819 | 0.845 | 0.427
13 | EMC-BAC-2 |  | 1.06 | 1 | 1.03 | 0.263 | 0.337 | 0.314 | 0.266 | 0.315 | 0.904 | 0.84 | 0.864 | 0.955 | 0.962 | 1.19 | 1.14 | 1.13 | 1.05 | 1.06
14 | NCI-H650 | 0.284 | 0.322 | 0.341 | 0.303 |  | 0.41 | 0.393 | 0.245 | 0.32 | 0.975 | 0.946 | 1.06 | 0.983 | 0.874 | 0.868 | 1 | 0.87 | 0.945 | 0.366
15 | NCI-H1355 | 0.374 | 0.36 | 0.395 | 0.354 | 0.516 | 0.738 | 0.764 | 0.671 | 0.427 | 0.455 | 0.433 | 0.47 | 0.417 | 0.464 | 1.1 | 1.34 | 1.23 | 1.23 | 1.34
16 | NCI-H838 | 0.431 | 0.441 | 0.46 | 0.451 | 0.221 | 0.305 | 0.26 | 0.187 | 0.233 | 0.705 | 0.566 | 0.506 | 0.529 | 0.49 | 1.24 | 0.971 | 0.807 | 0.778 | 0.643
17 | NCI-H1650 | 0.216 | 0.49 | 0.399 | 0.509 | 0.42 | 0.402 | 0.428 | 0.39 | 0.311 | 0.458 | 0.689 | 0.609 | 0.532 | 0.415 | 0.192 | 0.217 | 0.201 | 0.195 | 0.182
18 | NCI-H322M | 0.67 | 0.645 | 0.736 | 0.872 | 0.242 | 0.253 | 0.266 |  | 0.318 | 0.464 | 0.482 | 0.491 | 0.448 | 0.544 | 1.25 | 1.21 | 1.32 | 1.14 | 1.18
19 | NCI-H661 | 0.549 | 0.57 | 0.541 | 0.541 | 0.702 | 0.878 | 0.893 | 0.723 | 0.55 | 0.684 | 0.574 | 0.55 | 0.647 | 0.54 | 0.859 | 0.64 | 0.874 | 0.567 | 0.795
20 | NCI-H520 | 0.445 | 0.519 | 0.518 | 0.498 | 0.212 | 0.205 | 0.181 | 0.219 | 0.196 | 0.734 | 0.724 | 0.814 | 0.776 | 0.646 | 0.945 | 0.739 | 0.606 | 0.51 | 0.446
21 | NCI-H441 | 0.226 | 0.255 | 0.243 | 0.248 | 0.671 | 0.739 | 0.867 |  | 0.667 | 0.567 | 0.452 | 0.456 | 0.429 | 0.388 | 0.53 | 0.409 | 0.407 | 0.815 | 0.471
